# Assay results: patent publication US20060134630A1, “Method for screening for an antimicrobial polypeptide” (Novozymes A/S, priority 2002, published 2006)
# Key:
# Fusarium longypes [1] = test: Growth inhibition of Fusarium longypes by AFP diffused into solid media (filter removed); assay type: cell-based; design: key: +: whether or not a clearing zone is present in the top-layer; −: whether or not a clearing zone is present in the top-layer; details: Fusarium longypes top-layer, acetate filter removed, 0.1% arabinose, 3 days room temperature
# Source text: The method used in this example is similar to the method described in example 14 with the difference that in this example the acetate filter containing the E.coli origami cells is removed from the arabinose plate before it is overlaid with the fungus Fusarium longypes which is used as an indicator strain.
# Additionally, this example is very similar to example 4, with the exception that in the present example AFP is the antimicrobial polypeptide (instead of Plectasin in example 4) and Fusarium longypes is the indicator cells (instead of Bacillus subtilis in example 4). As described in example 14, E. coli origami cells were transformed with pHHA900-AFP and pHHA, respectively and cultured overnight at 37 degrees C on LB-agar plates containing tetracycline (tet), kanamycin (kan) and ampicillin (amp) to select for viable E.coli origami cells comprising said constructs. Two viable E.coli origami colonies containing each of the constructs were selected and used to inoculate a LB-agar plate with tet, kan and amp before culturing said plate for 3 days at 37 degrees C. A cellulose acetate filter was placed on top of the plate and the colonies were striped off with the filter. The filter was then placed on a new LB-agar plate containing 0.1% arabinose with the colonies facing up to induce expression of the AFP. The filter-agar, 0.1% arabinose plate was incubated overnight at 37 degrees C. […]
# Fusarium longypes [2] = test: Growth inhibition of Fusarium longypes by AFP (filter-agar plate treated with chloroform); assay type: cell-based; design: key: +: whether or not a clearing zone is present in the top-layer; −: whether or not a clearing zone is present in the top-layer; details: Fusarium longypes top-layer over origami colonies, 0.1% arabinose, 3 days room temperature
# Source text: E. coli origami cells were transformed with pHHA900-AFP and pHHA, respectively and cultured overnight at 37 degrees C. on LB-agar plates containing tetracycline (tet), kanamycin (kan) and ampicillin (amp) to select for viable origami cells comprising said constructs. Two viable origami colonies containing each of the constructs were selected and used to inoculate 3 other LB-agar plates with tet, kan and amp before culturing said plates for 3 days at 37 degrees C. A cellulose acetate filter (Schleider & Schull) was placed on top of each of the plates and the colonies were striped off with the filters. The filters were then place on new LB-agar plates containing 0.1% arabinose with the colonies facing up to induce expression of the AFP. The filter-agar, 0.1% arabinose plates were incubated overnight at 37 degrees C. before treating them with chloroform as described in example 1. After this a top-layer of 6 ml agar comprising approximately […] Fusarium longypes were poured on top of the chloroform treated filter-agar plate. The plates with top-layer were then incubated for 3 days at room temperature. The pink color of the Fusarium longypes mycelium facilitated the detection of the clearing zones in the top layer. […]
substance,measurement,setting,value
"pHHA900-AFP: antifungal protein derived from Aspergillus giganteus, expressed in the cytoplasm (ATYNGKCYKKDNICKYKAQSGKTAICKCYVKKCPRDGAKCEFDSYKGKCYC; UniProt P17737 44-94, looked up)",Clearing zone +/−,Fusarium longypes [1],+
same,"Clearing zone +/−, Plate treated with chloroform",Fusarium longypes [2],+
